Test results from the NIST ThermoML archive (doi:10.1021/je060271a).

Settings: 343.15 K, Liquid, Vibrating tube method

CCCCC(=O)OCC(COC(=O)CCCC)(COC(=O)CCCC)COC(=O)CCCC [pentaerythritol tetrapentanoate]
Settings | mass density [kg/m3]
20939 kPa | 994
20965 kPa | 994
20992 kPa | 994.1
21020 kPa | 993.9
21052 kPa | 994.1
21079 kPa | 994.1
21106 kPa | 994.1
21254 kPa | 994.2
21281 kPa | 994.3
21309 kPa | 994.2
21342 kPa | 994.3
21370 kPa | 994.3
22531 kPa | 995.1
22626 kPa | 995.2
22664 kPa | 995
22696 kPa | 995.3
23251 kPa | 995.5
23324 kPa | 995.7
23466 kPa | 995.7
23985 kPa | 996.2
24021 kPa | 996
24064 kPa | 996
24136 kPa | 996.2
24180 kPa | 996.1
24216 kPa | 996.2
24253 kPa | 996.2
24297 kPa | 996.3
24334 kPa | 996.4
24371 kPa | 996.3
24415 kPa | 996.2
24452 kPa | 996.3
24490 kPa | 996.5
24529 kPa | 996.4
24574 kPa | 996.5
24612 kPa | 996.4
24650 kPa | 996.5
24696 kPa | 996.4
24734 kPa | 996.4
24772 kPa | 996.5
24856 kPa | 996.5
24895 kPa | 996.7
24934 kPa | 996.7
24981 kPa | 996.8
25274 kPa | 996.9
25314 kPa | 997
25354 kPa | 996.9
25839 kPa | 997.2
25895 kPa | 997.4
26210 kPa | 997.4
26261 kPa | 997.5
26310 kPa | 997.5
26350 kPa | 997.5
26385 kPa | 997.6
26426 kPa | 997.6
26460 kPa | 997.6
26502 kPa | 997.8
26536 kPa | 997.7
26571 kPa | 997.8
26607 kPa | 997.7
26649 kPa | 997.7
26684 kPa | 997.9
26720 kPa | 997.9
26756 kPa | 997.9
26800 kPa | 997.9
26835 kPa | 998
26871 kPa | 998
26914 kPa | 998
26950 kPa | 998
26986 kPa | 998
27029 kPa | 998.1
27065 kPa | 998.2
27101 kPa | 998
27145 kPa | 998.2
27182 kPa | 998.1
27219 kPa | 998.2
27256 kPa | 998.2
27301 kPa | 998.2
27339 kPa | 998.2
27376 kPa | 998.2
27421 kPa | 998.2
27458 kPa | 998.2
